PubChem BioAssay (NCI)
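Values below derive from 48-hour exposures of cells grown in 96-well plates, with endpoints linearly interpolated between the two concentrations bracketing the appropriate inhibition level. GI50 marks 50% less growth. At the TGI there is no net growth.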

Key:
Experiment in all cases: NCI anticancer screen, dose series, 48 h
786-0 renal = test system: 786-0 renal
A498 renal = test system: A498 renal
A549 NSCLC = test system: A549 NSCLC
ACHN renal = test system: ACHN renal
CAKI-1 renal = test system: CAKI-1 renal
CCRF-CEM leukemia = test system: CCRF-CEM leukemia
COLO 205 colon = test system: COLO 205 colon
DLD-1 colon = test system: DLD-1 colon
DMS 114 small cell lung = test system: DMS 114 small cell lung
DU-145 prostate = test system: DU-145 prostate
EKVX NSCLC = test system: EKVX NSCLC
HCC-2998 colon = test system: HCC-2998 colon
HCT-116 colon = test system: HCT-116 colon
HCT-15 colon = test system: HCT-15 colon
HL-60(TB) leukemia = test system: HL-60(TB) leukemia
HOP-18 NSCLC = test system: HOP-18 NSCLC
HOP-62 NSCLC = test system: HOP-62 NSCLC
HOP-92 NSCLC = test system: HOP-92 NSCLC
IGROV1 ovarian = test system: IGROV1 ovarian
K-562 leukemia = test system: K-562 leukemia
KM12 colon = test system: KM12 colon
LOX IMVI melanoma = test system: LOX IMVI melanoma
LXFL 529 NSCLC = test system: LXFL 529 NSCLC
M14 melanoma = test system: M14 melanoma
M19-MEL melanoma = test system: M19-MEL melanoma
MALME-3M melanoma = test system: MALME-3M melanoma
MOLT-4 leukemia = test system: MOLT-4 leukemia
NCI-H226 lung = test system: NCI-H226 lung
NCI-H23 lung = test system: NCI-H23 lung
NCI-H460 lung = test system: NCI-H460 lung
NCI-H522 lung = test system: NCI-H522 lung
OVCAR-3 ovarian = test system: OVCAR-3 ovarian
OVCAR-4 ovarian = test system: OVCAR-4 ovarian
OVCAR-5 ovarian = test system: OVCAR-5 ovarian
OVCAR-8 ovarian = test system: OVCAR-8 ovarian
PC-3 prostate = test system: PC-3 prostate
RPMI-8226 leukemia = test system: RPMI-8226 leukemia
RXF 393 renal = test system: RXF 393 renal
SF-268 CNS = test system: SF-268 CNS
SF-295 CNS = test system: SF-295 CNS
SF-539 CNS = test system: SF-539 CNS
SK-MEL-2 melanoma = test system: SK-MEL-2 melanoma
SK-MEL-28 melanoma = test system: SK-MEL-28 melanoma
SK-MEL-5 melanoma = test system: SK-MEL-5 melanoma
SK-OV-3 ovarian = test system: SK-OV-3 ovarian
SN12C renal = test system: SN12C renal
SNB-19 CNS = test system: SNB-19 CNS
SNB-75 CNS = test system: SNB-75 CNS
SNB-78 CNS = test system: SNB-78 CNS
SR leukemia = test system: SR leukemia
SW-620 colon = test system: SW-620 colon
TK-10 renal = test system: TK-10 renal
U251 CNS = test system: U251 CNS
UACC-257 melanoma = test system: UACC-257 melanoma
UACC-62 melanoma = test system: UACC-62 melanoma
UO-31 renal = test system: UO-31 renal
XF 498 CNS = test system: XF 498 CNS
DMS 273 small cell lung = test system: DMS 273 small cell lung
HT29 colon = test system: HT29 colon
KM20L2 colon = test system: KM20L2 colon
RXF-631 renal = test system: RXF-631 renal

Structure (SMILES): COC1CC(C)C(OC)C2=CC(=O)C=C(NC(=O)/C(C)=C/C=C\C(C)C(OC(N)=O)/C(C)=C\C(C)C1OC)C2=O (stereo unspecified)
- TGI (786-0 renal): 2.87 µM
- TGI (A498 renal): 24.2 µM
- TGI (A549 NSCLC): 31.4 µM
- TGI (ACHN renal): 3.97 µM
- TGI (CAKI-1 renal): 6.6 µM
- GI50 (CCRF-CEM leukemia): 0.0706 µM
- TGI (CCRF-CEM leukemia): 1.05 µM
- TGI (COLO 205 colon): 3.19 µM
- TGI (DLD-1 colon): 2.58 µM
- TGI (DMS 114 small cell lung): 17.8 µM
- TGI (DU-145 prostate): 15.9 µM
- TGI (EKVX NSCLC): 23.1 µM
- TGI (HCC-2998 colon): 2.11 µM
- TGI (HCT-116 colon): 1.51 µM
- TGI (HCT-15 colon): 3.31 µM
- TGI (HL-60(TB) leukemia): 1.13 µM
- TGI (HOP-18 NSCLC): 15.7 µM
- TGI (HOP-62 NSCLC): 10.5 µM
- TGI (HOP-92 NSCLC): 10.9 µM
- TGI (IGROV1 ovarian): 17.8 µM
- GI50 (K-562 leukemia): 0.047 µM
- TGI (K-562 leukemia): 1.19 µM
- TGI (KM12 colon): 1.43 µM
- TGI (LOX IMVI melanoma): 3.66 µM
- TGI (LXFL 529 NSCLC): 1.8 µM
- TGI (M14 melanoma): 12.2 µM
- TGI (M19-MEL melanoma): 6.62 µM
- TGI (MALME-3M melanoma): 12 µM
- TGI (MOLT-4 leukemia): 1.04 µM
- TGI (NCI-H226 lung): 22.4 µM
- TGI (NCI-H23 lung): 13.8 µM
- TGI (NCI-H460 lung): 8.37 µM
- GI50 (NCI-H522 lung): 0.0592 µM
- TGI (NCI-H522 lung): 0.728 µM
- TGI (OVCAR-3 ovarian): 1.48 µM
- TGI (OVCAR-4 ovarian): 2.48 µM
- TGI (OVCAR-5 ovarian): 17.8 µM
- TGI (OVCAR-8 ovarian): 18.3 µM
- TGI (PC-3 prostate): 23.6 µM
- TGI (RPMI-8226 leukemia): 4.39 µM
- TGI (RXF 393 renal): 1.68 µM
- TGI (SF-268 CNS): 6.98 µM
- TGI (SF-295 CNS): 13.4 µM
- TGI (SF-539 CNS): 1.04 µM
- TGI (SK-MEL-2 melanoma): 21.5 µM
- TGI (SK-MEL-28 melanoma): 1.05 µM
- TGI (SK-MEL-5 melanoma): 15 µM
- TGI (SK-OV-3 ovarian): 2.81 µM
- TGI (SN12C renal): 5.48 µM
- TGI (SNB-19 CNS): 18.1 µM
- TGI (SNB-75 CNS): 16.1 µM
- TGI (SNB-78 CNS): 13.6 µM
- TGI (SR leukemia): 0.729 µM
- TGI (SW-620 colon): 1.05 µM
- TGI (TK-10 renal): 9.81 µM
- TGI (U251 CNS): 11 µM
- TGI (UACC-257 melanoma): 1.8 µM
- TGI (UACC-62 melanoma): 14.8 µM
- TGI (UO-31 renal): 10.8 µM
- TGI (XF 498 CNS): 3.13 µM

Structure (SMILES): O=[N+]([O-])c1cccc(/C=N\NS(=O)(=O)c2ccc(Cl)cc2)c1O
- TGI (786-0 renal): > 100 µM
- TGI (A498 renal): > 100 µM
- TGI (A549 NSCLC): > 100 µM
- TGI (ACHN renal): > 100 µM
- TGI (CAKI-1 renal): > 100 µM
- TGI (CCRF-CEM leukemia): > 100 µM
- TGI (COLO 205 colon): > 100 µM
- TGI (DLD-1 colon): > 100 µM
- TGI (DMS 273 small cell lung): > 100 µM
- TGI (EKVX NSCLC): > 100 µM
- TGI (HCC-2998 colon): > 100 µM
- TGI (HCT-116 colon): > 100 µM
- TGI (HCT-15 colon): > 100 µM
- TGI (HL-60(TB) leukemia): > 100 µM
- TGI (HOP-18 NSCLC): > 100 µM
- TGI (HOP-62 NSCLC): > 100 µM
- TGI (HOP-92 NSCLC): > 100 µM
- TGI (HT29 colon): > 100 µM
- TGI (IGROV1 ovarian): > 100 µM
- TGI (K-562 leukemia): > 100 µM
- TGI (KM12 colon): > 100 µM
- TGI (KM20L2 colon): > 100 µM
- TGI (LOX IMVI melanoma): > 100 µM
- TGI (LXFL 529 NSCLC): > 100 µM
- TGI (M14 melanoma): > 100 µM
- TGI (M19-MEL melanoma): > 100 µM
- TGI (MALME-3M melanoma): > 100 µM
- TGI (MOLT-4 leukemia): > 100 µM
- TGI (NCI-H23 lung): > 100 µM
- TGI (NCI-H460 lung): > 100 µM
- TGI (NCI-H522 lung): > 100 µM
- TGI (OVCAR-3 ovarian): > 100 µM
- TGI (OVCAR-4 ovarian): > 100 µM
- TGI (OVCAR-5 ovarian): > 100 µM
- TGI (OVCAR-8 ovarian): > 100 µM
- TGI (RPMI-8226 leukemia): > 100 µM
- TGI (RXF 393 renal): > 100 µM
- TGI (RXF-631 renal): > 100 µM
- TGI (SF-268 CNS): > 100 µM
- TGI (SF-295 CNS): > 100 µM
- TGI (SF-539 CNS): > 100 µM
- TGI (SK-MEL-2 melanoma): > 100 µM
- TGI (SK-MEL-28 melanoma): > 100 µM
- TGI (SK-MEL-5 melanoma): > 100 µM
- TGI (SK-OV-3 ovarian): > 100 µM
- TGI (SN12C renal): > 100 µM
- TGI (SNB-19 CNS): > 100 µM
- TGI (SNB-75 CNS): > 100 µM
- TGI (SNB-78 CNS): > 100 µM
- TGI (SR leukemia): 60.5 µM
- TGI (SW-620 colon): > 100 µM
- TGI (TK-10 renal): > 100 µM
- TGI (U251 CNS): > 100 µM
- TGI (UACC-257 melanoma): > 100 µM
- TGI (UACC-62 melanoma): > 100 µM
- TGI (UO-31 renal): > 100 µM
